Five compounds from ChEMBL document CHEMBL4622908, “Two new secondary metabolites isolated from Avena sativa L. (Oat) seedlings and their effects on osteoblast differentiation” (Bioorg Med Chem Lett, 2020) can be followed below.

The test system of data set [1] is C2C12. Put plainly: Induction of osteoblast differentiation in mouse C2C12 cells assessed as increase in ALP expression by ALP staining based assay. Type of data set: functional, cell-based.
Data set [2] has as its system C2C12. Put plainly: Cytotoxicity against mouse C2C12 cells assessed as reduction in cell viability at 0.3 to 10 uM by CCK8 assay. The class given is cell-based. Particulars: c2c12, 10 µM. For orientation: Tetrazolium assays rely on reduction of a dye to a coloured formazan, in cell work by metabolically active cells.

Regarding `O=c1cc(-c2ccc(O)c(O)c2)oc2cc(O)c([C@@H]3O[C@H](CO[C@@H]4OC[C@@H](O)[C@H](O)[C@H]4O)[C@@H](O)[C@H](O)[C@H]3O)c(O)c12`, the results for the Activity entry in the data set on C2C12 [1] and in the data set with C2C12 [2] were “Dose-dependent effect” and “Non-Toxic”, respectively.
For the compound `C[C@@H]1O[C@@H](O[C@H]2[C@H](O[C@H]3CC[C@@]4(C)C(=CC[C@H]5[C@@H]6C[C@@H]7O[C@]8(CC[C@@](C)(CO[C@@H]9O[C@H](CO)[C@@H](O)[C@H](O)[C@H]9O)O8)[C@@H](C)[C@@H]7[C@@]6(C)CC[C@@H]54)C3)O[C@H](CO)[C@@H](O[C@@H]3O[C@H](CO)[C@@H](O)[C@H](O[C@@H]4O[C@H](CO)[C@@H](O)[C@H](O)[C@H]4O)[C@H]3O)[C@@H]2O)[C@H](O)[C@H](O)[C@H]1O`, the values for the Activity result in the data set on C2C12 [1] and in the data set with C2C12 [2] were “Dose-dependent effect” and “Non-Toxic”, respectively.
As to `O=c1cc(-c2ccc(O)cc2)oc2cc(O)c([C@@H]3O[C@H](CO)[C@@H](O)[C@H](O)[C@H]3O[C@@H]3OC[C@H](O)[C@H](O)[C@H]3O)c(O)c12`, the Activity result in the data set on C2C12 [1] is “Dose-dependent effect”; in the data set on C2C12 [2], “Non-Toxic”.
In the case of `COC1=CC23/C=C/C(=O)OC[C@@H]4O[C@H](O[C@@H]5CC(C(=O)O)=C[C@@H](OC(=O)/C=C/c6cc(OC)c(c2c6)OC3C[C@H]1O)[C@H]5O)[C@@H](O)[C@H](O)[C@H]4O` (stereo not given in full), the figures for the Activity entry in the data set on C2C12 [1] and in the data set with C2C12 [2] were “Dose-dependent effect” and “Non-Toxic”, respectively.
For the compound `COc1cc(O)c2c(=O)cc(-c3ccc(O)cc3)oc2c1[C@@H]1O[C@H](CO)[C@@H](O)[C@H](O)[C@H]1O[C@@H]1O[C@@H](C)[C@H](O)[C@@H](O)[C@H]1O`, the Activity entry in the data set with C2C12 [1] was “Dose-dependent effect”; in the data set with C2C12 [2] it was “Non-Toxic”.
